The source of these data is patent US20260130932A1, “NOVEL COMBINATION OF RIFAXIMIN AND CLARITHROMYCIN FOR TREATING MULTIDRUG-RESISTANT MYCOBACTERIUM ABSCESSUS” (priority 2022, published 2026).

Where “and” joins values, the source holds several entries; their conditions need not be identical. Identical values can stand only once. Like-named read-outs stand apart in the source and are kept apart here.

Experiment [1] concerns M. abscessus ATCC 19977. As to conditions: positive control, earlier report; cited from earlier work.
Experiment [2] relates to M. abscessus ATCC 19977 (pre-induced). The experiment is described as follows: microbe, parasite or virus in culture. The class given is cell-based, Mycobacterium abscessus. Here is the method:
(§1) The FICI was calculated by summing the FIC of Rfx and the FIC of Clr. FIC of Clr is the MIC of Clr in the presence of Rfx divided by MIC of Clr alone. FIC of Rfx was similarly calculated.
(§2) To characterize the interaction between Clr and Rfx, checkerboard synergy assays were performed on pre-induced Clr-resistant M. abscessus. The fractional inhibitory concentration index (FICI) obtained from the checkerboard assay defines whether the interaction between the two compounds is either synergistic (FICI≤0.5), additive (0.5<FICI≤1.0), indifferent (1.0<FICI≤4.0), or antagonistic (FICI >4.0) (Noel D J, Keevil C W, Wilks S A. 2021. MBio 12).

In experiment [3] the test system is M. abscessus ATCC 19977, M. abscessus strains M422 and M110. As to the kind of experiment: Checkerboard synergy assay, statements on all 3 M. abscessus strains. The class given is cell-based, Mycobacterium abscessus. The procedure:
(§3) For checkerboard synergy assay, 3 M. abscessus strains were used: M. abscessus ATCC 19977, M. abscessus strains M422 and M110, while bactericidal activity determination and the zebrafish study were performed with M. abscessus ATCC 19977. All three strains of M. abscessus harbor the inducible clarithromycin resistance-conferring erm(41) T28 sequevar. M. abscessus strain M422 and M110 were provided by Dr. Jeanette Teo, National University Hospital, Singapore (Chew K L, et al., 2017. J Med Microbiol 66: 1443-1447). M. abscessus ATCC 19977 and M. avium ATCC 700898 were acquired from American Type Culture Collection (ATCC).
(§4) With Rfx identified as the best potentiator of Clr activity, the interaction between Rfx and Clr was investigated by a checkerboard synergy approach using a broth microdilution method performed in 96-well plates. To provide a classification of the combined antibiotics based on the fractional inhibitory concentration index (FICI), this assay applied the combination of Clr and Rfx in concentrations of 0-64 μg/ml by 2-fold serial dilutions along the abscissa and ordinate, respectively. The FICI was calculated by summing the FIC of Rfx and the FIC of Clr. FIC of Clr is the MIC of Clr in the presence of Rfx divided by MIC of Clr alone. FIC of Rfx was similarly calculated.
as §2

Experiment [4] has as its system M. avium ATCC 700898 (uninduced). As to the kind of experiment: Checkerboard synergy assay. It counts as cell-based, Mycobacterium avium. As to conditions: for MIC90: Mycobacterium avium, ATCC700898. Here is the method: as §4
As both M. abscessus and M. avium are the main organism groups causing pulmonary NTM (Lim A Y H, et al., 2018. BMC Pulm Med 18 (1):85; Tan Y, et al., 2018. BMC Pulm Med 18 (1): 168), the inventors tested the combination of Clr and Rfx against M. avium in the checkerboard assay as well. With a FICI of 0.563, the interaction between Clr and Rfx was additive in M. avium.

The subject of experiment [5] is M. abscessus ATCC 19977. As to the kind of experiment: Zebrafish embryo infection model. The class given is in vivo, zebrafish (Denio rerio). An excerpt: To visualize the bacterial infection in the zebrafish (Denio rerio), a fluorescent strain of M. abscessus ATCC 19977 containing pJKD2893:mScarlet was generated. The pJKD2893 plasmid backbone was a kind gift from Professor Timothy Stinear. The gene expressing the fluorescent protein mScarlet was amplified from μMRE135-mScarlet (Addgene #118489, Mitja Remus-Emsermann lab). The amplification product was annealed by Gibson cloning with the pJKD2893 backbone amplified from a sample of pJKD2893. The resulting plasmid, termed pJKD2893:mScarlet, was electroporated into M. abscessus ATCC 19977 at a culture density equivalent to OD600˜20 using a BioRad GenePulser Xcell set at 2.5 kV, 25 uF, and 1,000Ω. […] Colonies carrying the plasmid were identified by their fluorescence. […]
Preparation of M. abscessus Inoculum and Zebrafish Infections Cultures of M. abscessus-pJKD2893:mScarlet in 7H9 media supplemented with 50 μg/ml kanamycin were grown to OD600 of 0.2-0.3 and concentrated to OD600 of 1 in 0.1% PBS-Tween-20. […] The actual CFU in the inoculum was determined a posteriori by injecting into 50 μl 0.1% PBS-Tween-20 and streaking on a plate. […]
Larvae were harvested to assess the bacterial load at 5 d post-infection using a slightly modified version of the Kremer lab method (Bernut et al., Antimicrob Agents Chemother 58: 4054-4063). […] Fluorescent colonies were counted after 5-6 days. […]

Experiment [6] has as its system M. abscessus strain M422 (pre-induced). As to the kind of experiment: microbe, parasite or virus in culture. It counts as cell-based, Mycobacterium abscessus. The procedure:
as §1, §2

Experiment [7] concerns M. abscessus strain M110 (pre-induced). As to the kind of experiment: microbe, parasite or virus in culture. The class given is cell-based, Mycobacterium abscessus. Here is the method: as §1, §2
In experiment [8] the test system is M. abscessus strain M422. The experiment is described as follows: Single-concentration assay with and without clarithromycin (hit validation). The class given is cell-based, Mycobacterium abscessus. The procedure:
as §3
(§5) Primary screening was carried out in 96-well flat-bottom Corning Costar cell culture plates at 50 μM compound along with 4 μg/ml of Clr in a starting inoculum of pre-induced M. abscessus cells at OD600 of 0.005 in a final volume of 100 μl. The plates were put in an airtight container with moist paper towels and incubated for 4 d at 30° C. The cultures in the wells were resuspended before OD600 was read in a BioTek Synergy 4 plate reader.
To start the validation process, the top 10 compounds with >90% growth inhibition were chose to perform a single-concentration assay, with and without clarithromycin. Finally, the inventors obtained 7 compounds that potentiated Clr efficacy.

In experiment [9] the test system is M. abscessus strain M422. As to the kind of experiment: Primary compound screening against pre-induced bacterial cells. The class given is cell-based, Mycobacterium abscessus. Particulars: 50 μM compound with 4 μg/ml Clr. Here is the method: A total of 2,252 drugs/compounds comprising 1,576 FDA-approved drugs and 676 clinical compounds were purchased from MedChemExpress. The compounds were dissolved in dimethyl sulfoxide (DMSO) to a stock concentration of 10 mM. The Clr resistance in M. abscessus was induced for 3 days under 0.5 μg/ml of Clr before being subjected to compound screening.
as §5
A compound library consisting of 2,252 FDA-approved and clinical-stage drugs was screened against M. abscessus clinical strain M422. Bacteria were exposed to a sub-inhibitory concentration of Clr (0.5 μg/ml) for 3 days to induce Clr resistance. The test drugs were screened at 50 μM in the presence of 4 μg/ml of Clr to maintain the Clr-resistance phenotype.

Setting [10] is: Mycobacteroides abscessus, alone, read-out: MIC90 Rfx individually.

In the case of `COc1nc2ccc(Br)cc2cc1[C@@H](c1ccccc1)[C@@](O)(CCN(C)C)c1cccc2ccccc12` [Bedaquiline], the “efficacy against M. abscessus in zebrafish embryos” value in [1] was “demonstrated efficacy”.
`CC[C@H]1OC(=O)[C@H](C)[C@@H](O[C@H]2C[C@@](C)(OC)[C@@H](O)[C@H](C)O2)[C@H](C)[C@@H](O[C@@H]2O[C@H](C)C[C@H](N(C)C)[C@H]2O)[C@](C)(OC)C[C@@H](C)C(=O)[C@H](C)[C@@H](O)[C@]1(C)O` [Clarithromycin, clarithromycin]: the “Percentage of bacterial growth” value is 80.1% and 116.9% and 119.5% and 108.3% and 97.8% and 90.2% and 95.5% in experiment [2] (clarithromycin 1 μg/ml, partner antibiotic 0 μg/ml); 80.6% and 99.5% and 102.2% and 98.9% and 80.2% and 84.8% and 96.8% in [2] (clarithromycin 2 μg/ml, partner antibiotic 0 μg/ml); 86.2% and 113.2% and 103.4% and 117.2% and 82.7% and 78.4% and 93.3% in experiment [2] (clarithromycin 4 μg/ml, partner antibiotic 0 μg/ml); 76.2% and 102.8% and 93.2% and 108.1% and 71.4% and 97.4% and 92.9% in experiment [2] (clarithromycin 8 μg/ml, partner antibiotic 0 μg/ml); 64.0% and 109.5% and 86.1% and 101.8% and 72.3% and 89.6% and 89.7% in experiment [2] (clarithromycin 16 μg/ml, partner antibiotic 0 μg/ml); 77.4% and 84.3% and 83.8% and 115.7% and 59.0% and 98.2% and 95.4% in experiment [2] (clarithromycin 32 μg/ml, partner antibiotic 0 μg/ml). Besides, the “reduction of the MIC of Clr when used in combination with Rfx” value in experiment [3] (pre-induced M. abscessus strains (FIG. 4, Table 2)) is given as “at least 16 fold”. In addition, in experiment [4] (read-out: MIC90), the MIC90 is < 0.1 µg/mL. Besides, in experiment [5] (Clr alone up to 74.8 μg/ml (100 μM), immersion for 4 days (FIG. 6A)), the “effect on bacterial load” value is reported as “unable to reduce bacterial load”.
On to `CO[C@H]1/C=C/O[C@@]2(C)Oc3c(C)c(O)c4c(O)c(c5c(nc6cc(C)ccn65)c4c3C2=O)NC(=O)/C(C)=C\C=C\[C@H](C)[C@H](O)[C@@H](C)[C@@H](O)[C@@H](C)[C@H](OC(C)=O)[C@@H]1C` [Rifaximin, rifaximin], for which the MIC90 in experiment [2] (Mycobacteroides abscessus, ATCC19977, read-out: MIC90 Rfx individually) was 128 µg/mL; in experiment [6] (setting [10]), 16 µg/mL; in [7] (setting [10]), 128 µg/mL; in experiment [4] (alone, read-out: MIC90 Rfx individually), 0.03 µg/mL; in experiment [4] (read-out: MIC90) it was < 0.1 µg/mL. Further, the “MIC90 Rfx in combination” value in experiment [2] (in combination with Clr) is 4 µg/mL; in experiment [6] it was 1 µg/mL; in experiment [7] it was 4 µg/mL; in experiment [4] (in combination with Clr), 0.015 µg/mL. Besides, in experiment [3] (Table 2), the “concentration at which significant synergistic effects with clarithromycin are shown” value was ≥ 1 µg/mL. Further, the “MIC of Rfx” value in experiment [3] (tested alone) is “extremely high”. Also, the “% inhibition with 0.5 μg/ml Clr” value in experiment [8] (compound combined with clarithromycin) was 100%. Also, the “% inhibition with compound alone” value in experiment [8] (without clarithromycin) stood at 85.6%. The CFU reduction result in experiment [5] (19.6 μg/ml Rfx alone, immersion for 4 days) is “did not show any CFU reduction”.
As for `CO[C@H]1/C=C/O[C@@]2(C)Oc3c(C)c(O)c4c(c3C2=O)C2=NC3(CCN(CC(C)C)CC3)NC2=C(NC(=O)/C(C)=C\C=C\[C@H](C)[C@H](O)[C@@H](C)[C@@H](O)[C@@H](C)[C@H](OC(C)=O)[C@@H]1C)C4=O` [rifabutin], the “Percentage of bacterial growth” value was 105.5% in experiment [2] (clarithromycin 0 μg/ml, partner antibiotic 1 μg/ml); 101.8% in experiment [2] (clarithromycin 0 μg/ml, partner antibiotic 2 μg/ml); 99.4% in experiment [2] (clarithromycin 0 μg/ml, partner antibiotic 4 μg/ml); 100.2% in experiment [2] (clarithromycin 0 μg/ml, partner antibiotic 8 μg/ml); 79.1% in experiment [2] (clarithromycin 0 μg/ml, partner antibiotic 16 μg/ml); 9.2% in [2] (clarithromycin 0 μg/ml, partner antibiotic 32 μg/ml). The “Percentage of bacterial growth” value in experiment [2] (clarithromycin 0 μg/ml, partner antibiotic 64 μg/ml) is 1.2%. Besides, in [9], the “hit status in primary screening” value is reported as “one of the top hits”.
